Reference: PubChem BioAssay (NCI)
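Test compounds were applied to cells in 96-well plates for 48 hours at 5 doses. TGI: concentration producing complete growth inhibition.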

What was measured:
Assay in all cases: NCI anticancer screen, dose series, 48 h
[1] = system: A498 renal
[2] = system: ACHN renal
[3] = system: EKVX NSCLC
[4] = system: HOP-92 NSCLC
[5] = system: NCI-H522 lung
[6] = system: RPMI-8226 leukemia
[7] = system: SNB-19 CNS
[8] = system: UO-31 renal
[9] = system: MCF7 breast
[10] = system: SR leukemia

Work on `COc1ccc(C(=O)O[C@H]2[C@@H]3C=CO[C@@H](OC4OC(CO)C(O)C(O)C4O)[C@@H]3[C@@]3(CO)O[C@@H]23)cc1O` (stereo partly specified) yielded a TGI [1] greater than 100 µM, a TGI [2] greater than 100 µM and a TGI [3] greater than 100 µM. The TGI [4] was greater than 100 µM, the TGI [5] was greater than 100 µM and the TGI [6] was greater than 100 µM. For the same compound, the TGI [7] was greater than 100 µM and the TGI [8] was greater than 100 µM.

In the case of `O=C(OC1C2OC(=O)c3cc(O)c(O)c(O)c3Oc3cc4c(c(O)c3O)-c3c(cc(O)c(O)c3O)C(=O)OCC3OC(O)C(OC(=O)c5cc(O)c(O)c(O)c5Oc5cc6c(c(O)c5O)-c5c(cc(O)c(O)c5O)C(=O)OC1C(COC6=O)OC2O)C(OC(=O)c1cc(O)c(O)c(O)c1)C3OC4=O)c1cc(O)c(O)c(O)c1` (stereo unspecified), the TGI [2] was greater than 100 µM, the TGI [3] was 37.9 µM and the TGI [4] was 58.5 µM. For the same compound, the TGI [9] was greater than 100 µM, the TGI [6] was 50.1 µM and the TGI [7] was 51.6 µM. For the same compound, the TGI [10] was 27.3 µM and the TGI [8] was greater than 100 µM.

Compound `CCOc1ccc2[nH]c3c(C)c4ccncc4c(C)c3c2c1` has a TGI [1] of 3.2 µM, a TGI [2] of 2.25 µM and a TGI [3] of 2.9 µM. For the same compound, the TGI [4] was 3.07 µM, the TGI [5] was 2.77 µM and the TGI [7] was 2.77 µM. The TGI [8] was 13.9 µM.

For `COc1ccc(-n2c(N)c(C#N)[nH]c2=O)cc1`, the TGI [1] was greater than 10 µM, the TGI [2] was greater than 10 µM and the TGI [3] was greater than 10 µM. The TGI [4] was greater than 10 µM, the TGI [5] was greater than 10 µM and the TGI [6] was greater than 10 µM. It also gave a TGI [7] greater than 10 µM, a TGI [10] greater than 10 µM and a TGI [8] greater than 10 µM.

In the case of `CCC1(N=[N+]=[N-])C(=O)c2ccccc2N(C)C1=O` (stereo unspecified), the TGI [1] was greater than 100 µM, the TGI [2] was greater than 100 µM and the TGI [3] was greater than 100 µM. It also gave a TGI [4] greater than 100 µM, a TGI [5] greater than 100 µM and a TGI [7] greater than 100 µM. It also gave a TGI [10] greater than 100 µM and a TGI [8] greater than 100 µM.

For `CO/N=C(/C)c1cccc(Nc2nc3ccccc3c3[nH]c4ccccc4c23)c1`, the TGI [2] was 12.8 µM, the TGI [9] was 19.9 µM and the TGI [5] was 9.61 µM. It also gave a TGI [7] of 26.7 µM, a TGI [10] greater than 100 µM and a TGI [8] of 22.1 µM.

`c1ccc2c(c1)c1c(n2CCOCCN2CCCC2)CCCC1` gave a TGI [2] of 42.1 µM, a TGI [3] of 75.2 µM and a TGI [4] of 86.9 µM. For the same compound, the TGI [9] was 31.3 µM, the TGI [6] was 42.2 µM and the TGI [10] was 35.2 µM. The TGI [8] was 43.2 µM.

For `Cc1c2ccncc2cc2c1[nH]c1ccccc12`, the TGI [1] was 12.2 µM, the TGI [3] was 16.3 µM and the TGI [4] was 15.2 µM. For the same compound, the TGI [9] was 23.5 µM, the TGI [5] was 18.9 µM and the TGI [6] was 8.7 µM. It also gave a TGI [7] of 34.7 µM and a TGI [8] of 9.89 µM.

Compound `NC1=C(NC(=O)Cc2ccccc2F)C(=O)c2ccccc2C1=O` has a TGI [2] greater than 100 µM, a TGI [3] greater than 100 µM and a TGI [4] of 98.1 µM. For the same compound, the TGI [5] was greater than 100 µM, the TGI [6] was greater than 100 µM and the TGI [7] was greater than 100 µM. It also gave a TGI [8] greater than 100 µM.

For `O=CNNC(=O)Nc1cccc2ccccc12`, the TGI [2] was greater than 100 µM, the TGI [3] was greater than 100 µM and the TGI [9] was greater than 100 µM. The TGI [6] was greater than 100 µM, the TGI [7] was greater than 100 µM and the TGI [10] was greater than 100 µM. It also gave a TGI [8] greater than 100 µM.

For `[N-]=[N+]=NC(c1cn(C2CC(O)C(CO)O2)c(=O)[nH]c1=O)C(Br)Br` (stereo unspecified), the TGI [2] was greater than 100 µM, the TGI [3] was greater than 100 µM and the TGI [4] was greater than 100 µM. It also gave a TGI [5] greater than 100 µM, a TGI [6] greater than 100 µM and a TGI [7] greater than 100 µM. It also gave a TGI [10] greater than 100 µM and a TGI [8] greater than 100 µM.

With `N#CN/C(N)=N/C/N=C(\N)NC#N` the TGI [1] was greater than 100 µM, the TGI [2] was greater than 100 µM and the TGI [3] was greater than 100 µM. For the same compound, the TGI [4] was greater than 100 µM, the TGI [5] was greater than 100 µM and the TGI [6] was greater than 100 µM. The TGI [7] was greater than 100 µM, the TGI [10] was 93.5 µM and the TGI [8] was greater than 100 µM.

`CCOC(=O)c1[nH]c(-c2[nH]c(-c3[nH]c(-c4[nH]c(C(=O)OCC)c(C)c4C(=O)OCC)c(C(=O)OCC)c3C)c(C)c2C(=O)OCC)c(C(=O)OCC)c1C` gave a TGI [1] greater than 100 µM, a TGI [2] greater than 100 µM and a TGI [3] greater than 100 µM. The TGI [9] was greater than 100 µM, the TGI [5] was greater than 100 µM and the TGI [6] was greater than 100 µM. For the same compound, the TGI [7] was greater than 100 µM.

`COc1ccc(C(c2c(O)c3ccccc3n(-c3ccccc3)c2=O)c2c(O)c3ccccc3n(-c3ccccc3)c2=O)cc1` was tested, and the TGI [2] was greater than 100 µM, the TGI [3] was greater than 100 µM and the TGI [4] was greater than 100 µM. For the same compound, the TGI [5] was greater than 100 µM, the TGI [6] was greater than 100 µM and the TGI [7] was greater than 100 µM. The TGI [10] was greater than 100 µM and the TGI [8] was greater than 100 µM.

Compound `O=c1cc(CO)oc2c3c(cc(O)c12)OCC(COC1OC(CO)C(O)C(O)C1O)=CC3` (stereo unspecified) has a TGI [1] greater than 100 µM, a TGI [2] greater than 100 µM and a TGI [3] greater than 100 µM. For the same compound, the TGI [4] was greater than 100 µM, the TGI [5] was greater than 100 µM and the TGI [6] was greater than 100 µM. The TGI [7] was greater than 100 µM, the TGI [10] was greater than 100 µM and the TGI [8] was greater than 100 µM.

In the case of `CN(C(=O)C12C3C4C5C3C1(C(=O)C13C6C7C8C6C1C8C73)C5C42)C(C)(C)C` (stereo unspecified), the TGI [1] was greater than 50 µM, the TGI [2] was greater than 50 µM and the TGI [3] was greater than 50 µM. For the same compound, the TGI [4] was greater than 50 µM, the TGI [5] was greater than 50 µM and the TGI [6] was greater than 42.9 µM. The TGI [7] was greater than 50 µM, the TGI [10] was greater than 50 µM and the TGI [8] was greater than 50 µM.

For `C/C=C(/I)CBr`, the TGI [2] was 45.5 µM, the TGI [3] was 49 µM and the TGI [4] was 29.2 µM. For the same compound, the TGI [5] was 4.35 µM, the TGI [6] was 39.2 µM and the TGI [7] was 63.5 µM. It also gave a TGI [8] of 34 µM.

`COc1ccc(N=NC(C(=O)c2ccccc2)C(=O)c2ccccc2)cc1` was tested, and the TGI [1] was greater than 100 µM, the TGI [2] was 86.1 µM and the TGI [3] was 71.1 µM. It also gave a TGI [5] of 45 µM, a TGI [6] of 53.7 µM and a TGI [7] of 80.3 µM. It also gave a TGI [8] of 51.7 µM.

`NC(=S)/N=C(/c1nc2ccc(Cl)cc2[nH]c1=O)C(O)c1ccccc1Cl` (stereo unspecified) was tested, and the TGI [1] was greater than 100 µM, the TGI [2] was greater than 100 µM and the TGI [3] was greater than 100 µM. The TGI [4] was greater than 100 µM, the TGI [5] was greater than 100 µM and the TGI [6] was greater than 100 µM. The TGI [8] was greater than 100 µM.
